Measurements as given in PMC12391391, “The balance between B55α and Greatwall expression levels predicts sensitivity to Greatwall inhibition in cancer cells” (Nature Communications, 2025).

Assays:
Experiment in all cases: biochemical
Set-up in all cases: LanthaScreen kinase activity assay (Thermo Fisher), dose-dependent inhibition by C-604
Details in all cases: read-out: IC50 (C-604)
HIPK2 = HIPK2 (Homo sapiens, UniProt Q9H2X6)
Description: (§1) To identify potential C-604 off-targets, we utilised a commercially available off-target screening service (Thermo Fisher Scientific) to assess the impact of C-604 on the in vitro activity of 100 human kinases (Supplementary Fig. 8a). Out of 100 tested targets, C-604 (1 µM) inhibited GWL (inhibition 95%) and an additional 10 kinases (inhibition ≥ 80%). […] The in vitro off-target effects of compound C-604 were determined by assessing its inhibitory potential in a panel of 100 human kinases using the LanthaScreen Kinase Activity Assay (Thermo Fisher Scientific).

MAP3K7 = target: T1, MAP3K7 (Homo sapiens, UniProt O43318)
T1 sequence (O43318 1-606): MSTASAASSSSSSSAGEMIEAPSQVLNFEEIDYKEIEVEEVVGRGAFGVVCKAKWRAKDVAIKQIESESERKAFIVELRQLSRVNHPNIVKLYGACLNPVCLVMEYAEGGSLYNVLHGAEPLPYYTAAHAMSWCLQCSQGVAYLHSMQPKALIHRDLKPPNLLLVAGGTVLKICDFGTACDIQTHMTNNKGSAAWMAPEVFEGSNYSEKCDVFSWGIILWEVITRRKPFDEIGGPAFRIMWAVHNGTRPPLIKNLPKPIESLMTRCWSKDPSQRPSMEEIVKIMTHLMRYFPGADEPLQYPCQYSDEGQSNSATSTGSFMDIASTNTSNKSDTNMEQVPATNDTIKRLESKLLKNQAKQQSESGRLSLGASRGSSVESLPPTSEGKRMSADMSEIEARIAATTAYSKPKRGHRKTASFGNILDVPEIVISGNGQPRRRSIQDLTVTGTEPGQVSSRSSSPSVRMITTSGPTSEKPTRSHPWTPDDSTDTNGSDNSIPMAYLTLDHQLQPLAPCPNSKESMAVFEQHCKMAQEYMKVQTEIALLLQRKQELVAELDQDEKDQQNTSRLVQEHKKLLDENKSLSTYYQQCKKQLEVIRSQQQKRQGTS
Description: as §1

MARK3 = MARK3 (Homo sapiens, UniProt P27448)
Description: as §1

MELK = MELK (Homo sapiens, UniProt Q14680)
Description: as §1

NUAK1 = target: T2, NUAK1 (Homo sapiens, UniProt O60285)
T2 sequence (O60285 1-661): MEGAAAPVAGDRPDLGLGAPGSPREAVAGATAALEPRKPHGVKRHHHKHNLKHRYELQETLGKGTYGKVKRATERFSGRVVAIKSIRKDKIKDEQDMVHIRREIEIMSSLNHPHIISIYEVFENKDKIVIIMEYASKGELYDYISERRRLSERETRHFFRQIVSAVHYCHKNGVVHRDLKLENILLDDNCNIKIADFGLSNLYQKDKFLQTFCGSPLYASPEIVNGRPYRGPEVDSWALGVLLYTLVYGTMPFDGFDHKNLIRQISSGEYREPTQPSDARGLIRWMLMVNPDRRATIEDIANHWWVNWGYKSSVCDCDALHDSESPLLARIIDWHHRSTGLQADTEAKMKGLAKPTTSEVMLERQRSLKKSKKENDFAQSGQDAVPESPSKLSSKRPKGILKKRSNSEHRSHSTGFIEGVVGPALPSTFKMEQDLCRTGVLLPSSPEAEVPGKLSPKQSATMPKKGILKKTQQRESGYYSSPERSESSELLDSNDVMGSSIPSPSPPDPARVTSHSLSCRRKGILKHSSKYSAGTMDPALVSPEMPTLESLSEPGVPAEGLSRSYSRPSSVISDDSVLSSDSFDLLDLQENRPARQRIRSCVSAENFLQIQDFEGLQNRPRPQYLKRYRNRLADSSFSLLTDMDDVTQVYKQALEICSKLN
Description: as §1

ULK2 = target: T3, ULK2 (Homo sapiens, UniProt Q8IYT8)
T3 sequence (Q8IYT8 1-1036): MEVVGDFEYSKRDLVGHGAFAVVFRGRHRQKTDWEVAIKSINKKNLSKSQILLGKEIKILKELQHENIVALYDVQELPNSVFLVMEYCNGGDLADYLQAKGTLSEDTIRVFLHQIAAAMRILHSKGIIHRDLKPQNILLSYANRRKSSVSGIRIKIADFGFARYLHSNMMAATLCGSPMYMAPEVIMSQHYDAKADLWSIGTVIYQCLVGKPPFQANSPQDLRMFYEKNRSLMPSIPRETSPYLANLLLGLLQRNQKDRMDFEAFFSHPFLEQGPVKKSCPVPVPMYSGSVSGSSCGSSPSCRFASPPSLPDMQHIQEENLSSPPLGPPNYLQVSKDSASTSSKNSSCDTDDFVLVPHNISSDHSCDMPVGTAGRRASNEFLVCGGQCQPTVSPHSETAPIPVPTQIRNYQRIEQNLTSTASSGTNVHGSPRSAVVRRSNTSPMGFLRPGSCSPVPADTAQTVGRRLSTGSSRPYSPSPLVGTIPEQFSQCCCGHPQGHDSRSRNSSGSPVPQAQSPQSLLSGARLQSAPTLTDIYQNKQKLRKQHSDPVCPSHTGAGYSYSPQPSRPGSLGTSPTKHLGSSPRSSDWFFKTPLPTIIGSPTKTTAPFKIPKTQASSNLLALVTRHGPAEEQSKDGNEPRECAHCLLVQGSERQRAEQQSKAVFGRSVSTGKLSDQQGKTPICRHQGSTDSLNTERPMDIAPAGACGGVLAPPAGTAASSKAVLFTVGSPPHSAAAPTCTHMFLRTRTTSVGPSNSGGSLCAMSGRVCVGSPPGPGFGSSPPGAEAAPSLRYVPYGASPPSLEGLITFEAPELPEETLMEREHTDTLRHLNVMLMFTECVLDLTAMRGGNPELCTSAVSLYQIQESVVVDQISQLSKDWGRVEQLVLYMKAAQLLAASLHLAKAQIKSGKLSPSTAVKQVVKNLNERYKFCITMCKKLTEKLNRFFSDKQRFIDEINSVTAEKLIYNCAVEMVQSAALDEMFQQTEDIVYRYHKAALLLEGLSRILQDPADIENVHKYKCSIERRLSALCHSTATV
Description: as §1

Chain of MELK (Q14680 whole entry): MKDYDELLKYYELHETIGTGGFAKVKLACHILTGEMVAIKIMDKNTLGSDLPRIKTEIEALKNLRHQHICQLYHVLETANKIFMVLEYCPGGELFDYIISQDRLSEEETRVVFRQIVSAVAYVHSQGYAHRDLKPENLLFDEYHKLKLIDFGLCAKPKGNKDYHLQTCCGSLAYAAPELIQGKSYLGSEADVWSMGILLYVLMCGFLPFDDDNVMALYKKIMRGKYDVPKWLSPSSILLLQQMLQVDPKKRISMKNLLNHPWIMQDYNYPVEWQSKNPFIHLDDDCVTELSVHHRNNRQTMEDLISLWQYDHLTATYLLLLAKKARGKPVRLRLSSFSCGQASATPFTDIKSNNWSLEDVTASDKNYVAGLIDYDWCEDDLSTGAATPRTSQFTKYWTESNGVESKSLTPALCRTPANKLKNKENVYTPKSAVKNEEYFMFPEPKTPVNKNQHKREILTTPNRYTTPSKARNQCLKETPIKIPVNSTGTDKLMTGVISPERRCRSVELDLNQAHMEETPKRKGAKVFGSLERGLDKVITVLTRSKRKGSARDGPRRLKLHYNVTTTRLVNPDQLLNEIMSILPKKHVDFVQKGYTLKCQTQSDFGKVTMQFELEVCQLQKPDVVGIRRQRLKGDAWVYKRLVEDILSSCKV
Chain of MARK3 (P27448 whole entry): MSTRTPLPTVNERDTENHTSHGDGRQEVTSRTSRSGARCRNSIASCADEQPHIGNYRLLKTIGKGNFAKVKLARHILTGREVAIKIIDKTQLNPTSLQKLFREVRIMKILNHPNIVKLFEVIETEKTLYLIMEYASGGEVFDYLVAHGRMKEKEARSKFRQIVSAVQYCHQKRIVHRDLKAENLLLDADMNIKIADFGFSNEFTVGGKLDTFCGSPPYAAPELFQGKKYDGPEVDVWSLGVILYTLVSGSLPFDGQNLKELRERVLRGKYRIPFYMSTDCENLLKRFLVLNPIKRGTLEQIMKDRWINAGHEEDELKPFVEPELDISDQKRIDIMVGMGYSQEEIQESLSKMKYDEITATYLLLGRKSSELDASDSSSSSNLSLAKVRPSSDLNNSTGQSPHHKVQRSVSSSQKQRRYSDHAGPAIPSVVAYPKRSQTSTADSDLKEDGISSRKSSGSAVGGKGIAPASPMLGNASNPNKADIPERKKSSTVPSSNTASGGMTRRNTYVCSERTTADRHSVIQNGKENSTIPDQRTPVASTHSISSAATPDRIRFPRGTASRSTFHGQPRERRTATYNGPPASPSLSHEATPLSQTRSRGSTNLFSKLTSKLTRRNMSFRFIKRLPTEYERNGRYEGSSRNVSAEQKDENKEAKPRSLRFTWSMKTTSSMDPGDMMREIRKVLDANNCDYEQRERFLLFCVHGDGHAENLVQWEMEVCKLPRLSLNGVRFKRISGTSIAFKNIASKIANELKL
Chain of HIPK2 (Q9H2X6 whole entry): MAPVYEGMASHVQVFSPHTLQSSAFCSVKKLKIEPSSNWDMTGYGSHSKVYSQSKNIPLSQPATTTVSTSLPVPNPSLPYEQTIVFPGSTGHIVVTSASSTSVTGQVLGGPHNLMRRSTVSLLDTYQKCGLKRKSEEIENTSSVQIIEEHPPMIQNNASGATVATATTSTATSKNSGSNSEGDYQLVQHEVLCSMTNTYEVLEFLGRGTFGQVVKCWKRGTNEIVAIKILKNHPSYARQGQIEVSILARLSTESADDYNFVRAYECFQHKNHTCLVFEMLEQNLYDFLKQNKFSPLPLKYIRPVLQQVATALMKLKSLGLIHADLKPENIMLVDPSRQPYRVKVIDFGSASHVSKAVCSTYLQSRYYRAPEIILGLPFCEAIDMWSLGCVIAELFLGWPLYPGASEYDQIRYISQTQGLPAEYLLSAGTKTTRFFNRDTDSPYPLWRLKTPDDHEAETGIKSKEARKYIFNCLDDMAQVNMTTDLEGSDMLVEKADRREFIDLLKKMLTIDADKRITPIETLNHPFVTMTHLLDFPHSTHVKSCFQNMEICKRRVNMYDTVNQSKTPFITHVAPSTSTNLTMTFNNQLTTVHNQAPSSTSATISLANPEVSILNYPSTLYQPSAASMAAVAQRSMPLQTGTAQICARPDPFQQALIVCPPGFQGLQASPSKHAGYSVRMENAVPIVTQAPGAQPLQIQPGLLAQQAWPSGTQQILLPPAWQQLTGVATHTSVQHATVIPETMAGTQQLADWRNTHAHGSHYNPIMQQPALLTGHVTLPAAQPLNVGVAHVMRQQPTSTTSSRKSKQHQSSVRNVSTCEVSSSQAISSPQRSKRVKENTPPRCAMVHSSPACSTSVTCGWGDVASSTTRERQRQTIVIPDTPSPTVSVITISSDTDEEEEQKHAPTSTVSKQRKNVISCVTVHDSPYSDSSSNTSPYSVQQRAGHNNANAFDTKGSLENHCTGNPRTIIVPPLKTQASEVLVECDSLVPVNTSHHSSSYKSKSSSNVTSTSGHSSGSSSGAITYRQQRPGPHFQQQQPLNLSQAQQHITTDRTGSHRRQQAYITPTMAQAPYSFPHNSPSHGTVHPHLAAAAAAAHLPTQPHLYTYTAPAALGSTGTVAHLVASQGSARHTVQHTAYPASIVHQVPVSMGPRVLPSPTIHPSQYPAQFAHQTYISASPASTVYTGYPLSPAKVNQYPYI

IC50 (HIPK2): 43 nM
IC50 (MAP3K7): 126 nM
IC50 (MARK3): 480 nM
IC50 (MELK): 16.9 nM
IC50 (NUAK1): 10.1 nM
IC50 (ULK2): 21.6 nM
Compound: CNC(=O)c1c[nH]c2ncc(-c3ccc(OCCN4CCC(c5ccccc5)C4)cc3)nc12 (racemic) [compound 21, C-604]
